Laboratory results taken from US20080279775A1, “Benztropinamine Analogs as Dopamine Uptake Inhibitors” (priority 2005, published 2008).
Counter-ions that a name gives are not always drawn. Like-named read-outs stand apart in the source and are kept apart here.

Experiments:
mice = assay: Locomotor stimulant effects (activity counts per minute); assay type: in vivo; details: injected, at the most effective dose, FIG. 2
Description: In contrast, 2m produced much more modest increases in activity of around 100 counts per min.

muscarinic M1 receptor = biological target: T1, muscarinic M1 receptor (Rattus norvegicus, UniProt P08482); assay: [3H]Pirenzepine binding assay; details: for Binding selectivity M1/DAT: Ki ratio; for Lower binding affinity at the M1 receptor compared to 2a: lower affinity than 2a
T1 construct: Membranes from frozen rat brains excluding cerebellum were thawed in ice-cold buffer; from tissue; host or cells: frozen rat brain (excluding cerebellum) membranes
T1 sequence (P08482 1-460): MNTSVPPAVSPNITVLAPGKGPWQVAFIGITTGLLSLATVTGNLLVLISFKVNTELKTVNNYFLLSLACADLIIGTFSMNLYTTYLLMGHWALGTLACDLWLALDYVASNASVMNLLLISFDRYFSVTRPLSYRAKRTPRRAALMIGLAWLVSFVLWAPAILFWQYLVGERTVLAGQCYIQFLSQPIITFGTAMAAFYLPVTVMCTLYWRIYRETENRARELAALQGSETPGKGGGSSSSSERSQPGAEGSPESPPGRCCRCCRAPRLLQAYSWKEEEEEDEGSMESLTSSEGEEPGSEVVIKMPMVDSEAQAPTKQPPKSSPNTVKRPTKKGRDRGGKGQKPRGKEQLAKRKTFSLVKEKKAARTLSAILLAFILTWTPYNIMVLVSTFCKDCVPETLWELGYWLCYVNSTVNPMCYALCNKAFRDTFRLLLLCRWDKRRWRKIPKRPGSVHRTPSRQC
Procedure: In order to understand the neurochemical and behavioral properties of the compounds of the present invention, exemplary benztropinamine analogs were evaluated for displacement of [^3H]WIN 35,428 (2β-carbomethoxy-3β-(4-fluorophenyl)tropane) binding to the DAT in rat caudate-putamen. These benztropinamine analogs were also evaluated for displacement of radiolabeled ligand binding at the serotonin (SERT) and norepinephrine (NET) transporters as well as the muscarinic m1 receptor (M1), Table 1, infra. The NET over DAT selectivity refers to the Ki ratio. […] The DAT selectivities of the analogs over these binding sites are depicted in Table 2.
[…] Binding Assay. Membranes from frozen rat brains excluding cerebellum were thawed in ice-cold buffer (10 mM Tris-HCl, 320 mM sucrose, pH 7.4) and homogenized with a Brinkman polytron in a volume of 10 ml/gm of tissue. The homogenate was centrifuged at 1,000×g for 10 min at 4° C. The resulting supernatant was then centrifuged at 10,000×g for 20 min at 4° C. The resulting pellet was resuspended in a volume of 200 mg/ml in 10 mM Tris buffer (pH 7.4). Ligand binding assays were conducted in tubes containing 0.5 ml of buffer (10 mM Tris-HCl, 5 mM MgCl2), 3 nM [^3H]pirenzepine (New England Nuclear, Boston, Mass.), and 20 mg of brain tissue. The reaction was started with the addition of the tissue and the tubes were incubated for 60 min in a 37° C. water bath. The incubation was terminated by the addition of 5 ml of ice-cold buffer (10 mM Tris-HCl, pH 7.4) and rapid filtration through Whatman GF/B glass fiber filter paper (presoaked in 0.5% polyethylenimine) using a Brandel Cell Harvester (Brandel Instruments, Gaithersburg, Md.). The filters were washed twice with 5 ml cold buffer, and transferred to scintillation vials to which absolute ethanol and Beckman Ready Safe was added. Quinuclidinyl benzilate (QNB), 100 μM final concentration, was used to determine non-specific binding. Data were analyzed by using GraphPad Prism software (San Diego, Calif.).

DAT = biological target: T2, DAT (Rattus norvegicus, UniProt P23977); assay: Dopamine transporter binding assay, displacement of [3H]WIN 35,428; details: for Ki: rat caudate-putamen membranes, read-out: DAT [3H]WIN 35,428 Ki ± SEM; for Reduction of binding affinity at the DAT compared to 2a: lower affinity than 2a
T2 construct: their brains removed to an ice-cooled dish for dissection of the caudate putamen; from tissue; host or cells: rat caudate putamen membranes (fresh homogenates)
T2 sequence (P23977 whole entry): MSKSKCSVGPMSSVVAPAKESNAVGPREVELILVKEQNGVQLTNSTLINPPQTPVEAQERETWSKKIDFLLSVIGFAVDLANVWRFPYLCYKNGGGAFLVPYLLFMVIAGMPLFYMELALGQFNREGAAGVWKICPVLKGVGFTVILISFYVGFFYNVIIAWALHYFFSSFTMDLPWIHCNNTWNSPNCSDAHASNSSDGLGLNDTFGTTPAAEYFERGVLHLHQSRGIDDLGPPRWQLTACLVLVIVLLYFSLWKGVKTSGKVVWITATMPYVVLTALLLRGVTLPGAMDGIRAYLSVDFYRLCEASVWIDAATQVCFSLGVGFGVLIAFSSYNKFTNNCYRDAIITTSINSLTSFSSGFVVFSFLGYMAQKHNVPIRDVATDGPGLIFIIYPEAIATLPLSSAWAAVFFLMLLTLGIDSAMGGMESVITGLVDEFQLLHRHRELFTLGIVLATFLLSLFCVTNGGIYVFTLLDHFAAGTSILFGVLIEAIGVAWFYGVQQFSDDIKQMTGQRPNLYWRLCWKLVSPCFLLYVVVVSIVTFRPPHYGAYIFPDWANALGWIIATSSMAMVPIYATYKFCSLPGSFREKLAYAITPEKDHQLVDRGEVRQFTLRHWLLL

NET [1] = assay type: binding, rat; details: for Binding selectivity NET/DAT: Ki ratio
Procedure: (§1) In order to understand the neurochemical and behavioral properties of the compounds of the present invention, exemplary benztropinamine analogs were evaluated for displacement of [^3H]WIN 35,428 (2β-carbomethoxy-3β-(4-fluorophenyl)tropane) binding to the DAT in rat caudate-putamen. These benztropinamine analogs were also evaluated for displacement of radiolabeled ligand binding at the serotonin (SERT) and norepinephrine (NET) transporters as well as the muscarinic m1 receptor (M1), Table 1, infra. The NET over DAT selectivity refers to the Ki ratio. When the Ki ratio is greater than 1, the compound is DAT selective. The DAT selectivities of the analogs over these binding sites are depicted in Table 2.
(§2) [^3H]Nisoxetine Binding Assay. Membranes from frozen frontal cortex dissected from male Sprague-Dawley rats (Taconic Labs, Germantown, N.Y.) were homogenized in 20 volumes (w/v) of 50 mM Tris containing 120 mM NaCl and 5 mM KCl (pH 7.4 at 25° C.), using a Brinkman Polytron (at setting 6 for 20 sec). The tissue was centrifuged at 50,000×g for 10 min at 4° C. The resulting pellet was resuspended in buffer and recentrifuged. The final pellet was resuspended in cold buffer to a concentration of 80 mg/ml (original wet weight). Ligand binding experiments were conducted in assay tubes containing 0.5 ml buffer, 0.5 nM [3H]nisoxetine (New England Nuclear, Boston, Mass.), and 8 mg frontal cortex tissue. The reaction was started with the addition of the tissue and the tubes were incubated for 60 min at 0-4° C. The incubation was terminated by rapid filtration through Whatman GF/B filters, presoaked in 0.05% polyethylenimine, using a Brandel Cell Harvester (Brandel Instruments Gaithersburg, Md.). The filters were washed twice with 5 ml cold buffer, transferred to scintillation vials to which Beckman Ready Safe was added. Nonspecific binding was determined using 1 μM desipramine. Data were analyzed using GraphPad Prism software (San Diego, Calif.).

SERT = biological target: T3, SERT (Rattus norvegicus, UniProt P31652); assay: [3H]Citalopram binding assay; details: for Binding selectivity SERT/DAT: Ki ratio
T3 construct: Membranes from frozen rat midbrain were homogenized; from tissue; host or cells: frozen rat midbrain membranes
T3 sequence (P31652 whole entry): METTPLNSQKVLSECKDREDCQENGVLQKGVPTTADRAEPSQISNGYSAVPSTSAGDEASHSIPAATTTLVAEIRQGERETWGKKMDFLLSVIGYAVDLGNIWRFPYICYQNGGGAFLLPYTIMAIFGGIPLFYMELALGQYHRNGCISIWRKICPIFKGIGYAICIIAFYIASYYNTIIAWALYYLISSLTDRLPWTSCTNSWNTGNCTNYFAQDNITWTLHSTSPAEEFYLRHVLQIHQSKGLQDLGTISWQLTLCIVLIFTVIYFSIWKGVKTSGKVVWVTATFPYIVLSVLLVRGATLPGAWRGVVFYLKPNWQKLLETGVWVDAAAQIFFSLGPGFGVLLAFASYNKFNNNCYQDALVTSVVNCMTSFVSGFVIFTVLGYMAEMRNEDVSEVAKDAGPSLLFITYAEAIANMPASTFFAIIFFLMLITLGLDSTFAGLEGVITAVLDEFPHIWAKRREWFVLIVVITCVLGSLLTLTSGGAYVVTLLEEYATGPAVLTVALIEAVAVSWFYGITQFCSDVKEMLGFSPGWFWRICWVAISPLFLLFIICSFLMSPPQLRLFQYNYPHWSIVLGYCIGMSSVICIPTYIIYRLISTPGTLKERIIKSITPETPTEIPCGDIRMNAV
Procedure: as §1
[^3H]Citalopram Binding Assay. Membranes from frozen rat midbrain were homogenized in 20 volumes (w/v) of 50 mM Tris containing 120 mM NaCl and 5 mM KCl (pH 7.4 at 25° C.), using a Brinkman Polytron (at setting 6 for 20 sec). The tissue was centrifuged at 20,000×g for 10 min at 4° C. The resulting pellet was resuspended in buffer and recentrifuged. The final pellet was resuspended in cold buffer to a concentration of 15 mg/ml (original wet weight). Ligand binding experiments were conducted in assay tubes containing 0.5 ml of buffer, 1.4 nM [^3H]citalopram (New England Nuclear, Boston Mass.), and 1.5 mg midbrain tissue. The reaction was started with the addition of the tissue and the tubes were incubated for 60 min at 25° C. (room temperature). The incubation was terminated by rapid filtration through Whatman GF/B filters (presoaked in 0.3% polyethylenimine in water) using a Brandel Cell Harvester (Brandel Instruments Gaithersburg, Md.). The filters were washed twice with 5 ml cold buffer, transferred to scintillation vials to which Beckman Ready Safe was added. Nonspecific binding was determined using 10 μM fluoxetine (RBI, Natick, Mass.). Data were analyzed using GraphPad Prism software (San Diego, Calif.).

NET [2] = biological target: NET (Rattus norvegicus, UniProt Q63380); assay type: binding
Sequence of NET (Rattus norvegicus, UniProt Q63380) (Q63380 1-617): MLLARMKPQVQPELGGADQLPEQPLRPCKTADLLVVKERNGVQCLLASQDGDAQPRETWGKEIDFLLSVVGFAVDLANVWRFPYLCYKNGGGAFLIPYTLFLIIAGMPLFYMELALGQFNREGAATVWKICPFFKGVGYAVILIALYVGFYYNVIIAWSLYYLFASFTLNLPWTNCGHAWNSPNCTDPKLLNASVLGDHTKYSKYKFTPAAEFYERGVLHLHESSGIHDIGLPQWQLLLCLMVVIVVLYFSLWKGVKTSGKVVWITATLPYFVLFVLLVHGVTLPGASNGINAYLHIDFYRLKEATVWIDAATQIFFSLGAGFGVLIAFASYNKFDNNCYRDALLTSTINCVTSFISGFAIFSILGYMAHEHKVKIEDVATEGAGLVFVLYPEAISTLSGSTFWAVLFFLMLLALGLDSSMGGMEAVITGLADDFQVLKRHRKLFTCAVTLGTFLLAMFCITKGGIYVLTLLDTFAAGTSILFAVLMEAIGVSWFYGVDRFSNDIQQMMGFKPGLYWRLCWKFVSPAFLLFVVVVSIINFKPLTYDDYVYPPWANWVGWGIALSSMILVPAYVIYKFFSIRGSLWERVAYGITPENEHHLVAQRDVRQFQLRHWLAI
Procedure: as §1, §2

[3] = rat brain membranes excluding cerebellum, read-out: M1 [3H]pirenzepine Ki ± SEM
[4] = rat midbrain membranes, read-out: SERT [3H]citalopram Ki ± SEM

Structure (SMILES)	Binding selectivity M1/DAT (muscarinic M1 receptor)	Ki (muscarinic M1 receptor; [3])	Ki (DAT)	Binding selectivity NET/DAT (NET [1])	Binding selectivity SERT/DAT (SERT)	Ki (SERT; [4])	further results
CN(C(c1ccc(F)cc1)c1ccc(F)cc1)[C@H]1C[C@H]2CC[C@@H](C1)N2C (as salt: oxalate) [Compound 2c]	–	–	–	–	–	–	melting point: 227 to 228 °C
Fc1ccc(C(N[C@H]2C[C@H]3CC[C@@H](C2)N3)c2ccc(F)cc2)cc1 (as salt: oxalate) [Compound 2g]	–	–	–	–	–	–	melting point: 138 to 140 °C
Fc1ccc(C(N[C@H]2C[C@H]3CC[C@@H](C2)N3CCCCc2ccccc2)c2ccc(F)cc2)cc1 (as salt: oxalate) [Compound 2j]	–	–	–	–	–	–	melting point: 194 to 196 °C
Fc1ccc(C(N[C@H]2C[C@H]3CC[C@@H](C2)N3CCc2c[nH]c3ccccc23)c2ccc(F)cc2)cc1 (as salt: oxalate) [Compound 2l]	–	–	–	–	–	–	melting point: 178 to 180 °C
COC(=O)[C@H]1[C@@H](OC(=O)c2ccccc2)C[C@@H]2CC[C@H]1N2C [Cocaine, cocaine, reference compound]	–	–	–	–	–	–	Locomotor activity (mice): ~400 counts per min
CN1[C@@H]2CC[C@H]1C[C@@H](NC(c1ccc(F)cc1)c1ccc(F)cc1)C2 [Compound 2a]	0.7	7.81 ± 1.17 nM	11.3 ± 1.61 nM	160	769	8680 ± 436 nM	–
CN1[C@@H]2CC[C@H]1C[C@H](NC(c1ccc(F)cc1)c1ccc(F)cc1)C2 [Compound 2b]	0.1	–	661 ± 35 nM	23	73	–	Ki (muscarinic M1 receptor): 59.4 ± 7.3 nM; Reduction of binding affinity at the DAT compared to 2a (DAT): 58 fold; Ki (NET [2]; read-out: NET [3H]nisoxetine Ki ± SEM, rat frontal cortex membranes): 15200 ± 1230 nM; Ki (SERT): 48500 ± 6370 nM
CN(C(c1ccc(F)cc1)c1ccc(F)cc1)[C@H]1C[C@H]2CC[C@@H](C1)N2C [Compound 2c]	0.2	–	123 ± 15.5 nM	68	140	–	Ki (muscarinic M1 receptor): 18.6 ± 2.48 nM; Lower binding affinity at the M1 receptor compared to 2a (muscarinic M1 receptor): about 2 fold; Reduction of binding affinity at the DAT compared to 2a (DAT): 11 fold; Lower binding affinity at the NET compared to 2a (NET [2]; lower affinity than 2a): about 5 fold; Ki (SERT): 17200 ± 2460 nM; Lower binding affinity at the SERT compared to 2a (SERT; lower affinity than 2a): about 2 fold
CN1[C@@H]2CC[C@H]1C[C@@H](NC(c1ccc(Cl)cc1)c1ccc(Cl)cc1)C2 [Compound 2d]	–	50 ± 7.1 nM	–	–	–	4180 ± 623 nM	Reduction of binding affinity at the DAT compared to 2a (DAT): around 3 fold
CN1[C@@H]2CC[C@H]1C[C@@H](NC(c1ccccc1)c1ccc(Cl)cc1)C2 (some centres unmarked) [Compound 2e]	0.3	9.3 ± 0.27 nM	36.5 ± 0.66 nM	87	373	13600 ± 1040 nM	Reduction of binding affinity at the DAT compared to 2a (DAT): around 3 fold
CN1[C@@H]2CC[C@H]1C[C@@H](NC(c1ccc(Cl)c(Cl)c1)c1ccc(Cl)c(Cl)c1)C2 [Compound 2f]	3	17.8 ± 2.27 nM	5.35 ± 0.25 nM	48	563	3010 ± 332 nM	Higher binding affinity at the DAT compared to 2a (DAT; higher affinity than 2a): 2 fold; Reduction of NET over DAT selectivity compared to 2a (NET [1]; compared to 2a): 3 fold
Fc1ccc(C(N[C@H]2C[C@H]3CC[C@@H](C2)N3)c2ccc(F)cc2)cc1 [Compound 2g]	18	154 ± 19.6 nM	8.45 ± 0.23 nM	118	491	4150 ± 368 nM	–
C=CCN1[C@@H]2CC[C@H]1C[C@@H](NC(c1ccc(F)cc1)c1ccc(F)cc1)C2 [Compound 2h]	5	130 ± 10.5 nM	26.8 ± 3.43 nM	208	146	3920 ± 581 nM	–
CCCCN1[C@@H]2CC[C@H]1C[C@@H](NC(c1ccc(F)cc1)c1ccc(F)cc1)C2 [Compound 2i]	21	454 ± 36.7 nM	21.5 ± 2.31 nM	136	123	2640 ± 27.6 nM	–
Fc1ccc(C(N[C@H]2C[C@H]3CC[C@@H](C2)N3CCCCc2ccccc2)c2ccc(F)cc2)cc1 [Compound 2j]	37	438 ± 56.2 nM	11.7 ± 0.39 nM	139	43	502 ± 68.1 nM	–
NCCN1[C@@H]2CC[C@H]1C[C@@H](NC(c1ccc(F)cc1)c1ccc(F)cc1)C2 [Compound 2k]	–	2110 ± 119 nM	12.5 ± 1.73 nM	–	–	–	Lower binding affinity at the M1 receptor compared to 2a (muscarinic M1 receptor): 170 fold
Fc1ccc(C(N[C@H]2C[C@H]3CC[C@@H](C2)N3CCc2c[nH]c3ccccc23)c2ccc(F)cc2)cc1 [Compound 2l]	–	413 ± 6.55 nM	–	–	–	347 ± 41.3 nM	Reduction of binding affinity at the DAT compared to 2a (DAT): 6 fold
